Assay results published in ChEMBL document CHEMBL3425509, “Design, synthesis, and biological evaluation of benzofuran- and 2,3-dihydrobenzofuran-2-carboxylic acid N-(substituted)phenylamide derivatives as anticancer agents and inhibitors of NF-κB” (Bioorg Med Chem Lett, 2015).

Key:
[1] = test system: NCI-H23; assay: Cytotoxicity against human NCI-H23 cells assessed as cell viability at 10 uM after 72 hrs by sulforhodamine B assay relative to control; type: functional; settings: NCI-H23, 72 h, read-out: Activity
[2] = test system: ACHN; assay: Cytotoxicity against human ACHN cells assessed as cell viability at 10 uM after 72 hrs by sulforhodamine B assay relative to control; type: functional; settings: read-out: Activity
[3] = Cytotoxicity against human HCT15 cells assessed as cell viability at 10 uM after 72 hrs by sulforhodamine B assay relative to control; type: functional; settings: HCT-15, 72 h, read-out: Activity
[4] = test system: MDA-MB-231; assay: Cytotoxicity against human MDA-MB-231 cells assessed as cell viability at 10 uM after 72 hrs by sulforhodamine B assay relative to control; type: functional; settings: MDA-MB-231, 72 h, read-out: Activity
[5] = Cytotoxicity against human NUGC3 cells assessed as cell viability at 10 uM after 72 hrs by sulforhodamine B assay relative to control; type: functional; settings: NUGC-3, 72 h, read-out: Activity
[6] = target: Nuclear factor NF-kappa-B complex (Homo sapiens, UniProt P19838+Q00653+Q04206); assay: Inhibition of NF-kappaB (unknown origin) transcriptional activity in LPS-induced mouse RAW264.7 cells after 1 hr by secreted alkaline phosphatase assay; type: cell-based
Nuclear factor NF-kappa-B complex, sequence (P19838 1-433 limits assumed): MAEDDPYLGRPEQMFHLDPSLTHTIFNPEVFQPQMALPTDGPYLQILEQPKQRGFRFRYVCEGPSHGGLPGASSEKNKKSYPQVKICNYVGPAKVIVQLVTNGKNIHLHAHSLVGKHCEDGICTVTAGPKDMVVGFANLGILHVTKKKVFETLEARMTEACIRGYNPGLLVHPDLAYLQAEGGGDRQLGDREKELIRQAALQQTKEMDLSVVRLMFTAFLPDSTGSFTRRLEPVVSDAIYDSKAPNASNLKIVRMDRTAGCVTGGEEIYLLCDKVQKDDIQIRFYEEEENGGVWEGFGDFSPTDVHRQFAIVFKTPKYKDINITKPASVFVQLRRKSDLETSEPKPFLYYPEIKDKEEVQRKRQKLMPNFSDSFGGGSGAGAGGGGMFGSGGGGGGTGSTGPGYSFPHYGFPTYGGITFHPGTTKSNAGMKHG
Nuclear factor NF-kappa-B complex, sequence (Q00653 1-454 limits assumed): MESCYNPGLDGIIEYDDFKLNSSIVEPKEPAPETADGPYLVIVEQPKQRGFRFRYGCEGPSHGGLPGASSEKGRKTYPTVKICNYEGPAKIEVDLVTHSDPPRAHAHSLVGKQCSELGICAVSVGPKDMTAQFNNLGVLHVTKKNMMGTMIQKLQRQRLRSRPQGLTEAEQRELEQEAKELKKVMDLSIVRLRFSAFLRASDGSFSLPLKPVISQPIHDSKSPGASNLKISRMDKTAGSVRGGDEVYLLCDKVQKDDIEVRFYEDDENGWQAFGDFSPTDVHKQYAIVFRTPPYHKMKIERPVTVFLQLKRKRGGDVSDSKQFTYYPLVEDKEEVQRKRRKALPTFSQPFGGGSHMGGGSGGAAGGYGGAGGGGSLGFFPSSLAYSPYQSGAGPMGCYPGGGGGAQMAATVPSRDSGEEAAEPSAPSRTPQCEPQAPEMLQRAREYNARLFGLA
Nuclear factor NF-kappa-B complex, sequence (Q04206 whole entry): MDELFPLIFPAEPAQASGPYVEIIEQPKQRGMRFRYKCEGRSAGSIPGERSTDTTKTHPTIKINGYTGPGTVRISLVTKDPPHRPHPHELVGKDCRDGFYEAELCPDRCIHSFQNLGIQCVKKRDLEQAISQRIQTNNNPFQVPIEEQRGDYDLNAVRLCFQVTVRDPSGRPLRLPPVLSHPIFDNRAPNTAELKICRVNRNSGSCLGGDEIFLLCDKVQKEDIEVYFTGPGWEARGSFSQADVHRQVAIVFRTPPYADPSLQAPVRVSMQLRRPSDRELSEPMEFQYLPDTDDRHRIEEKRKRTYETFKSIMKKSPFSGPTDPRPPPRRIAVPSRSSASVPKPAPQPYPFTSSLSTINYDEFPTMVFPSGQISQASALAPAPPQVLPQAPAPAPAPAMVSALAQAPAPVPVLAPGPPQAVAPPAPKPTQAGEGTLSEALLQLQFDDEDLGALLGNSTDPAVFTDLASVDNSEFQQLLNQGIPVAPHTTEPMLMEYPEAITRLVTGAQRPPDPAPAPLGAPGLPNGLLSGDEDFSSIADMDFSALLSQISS

[7] = target: Nuclear factor NF-kappa-B complex (Homo sapiens) (UniProt Q00653+P19838+Q04206); assay: Inhibition of NF-kappaB (unknown origin) transcriptional activity in LPS-induced mouse RAW264.7 cells at 30 uM after 1 hr by secreted alkaline phosphatase assay relative to control; type: cell-based
Nuclear factor NF-kappa-B complex (Homo sapiens), sequence (P19838 whole entry, looked up): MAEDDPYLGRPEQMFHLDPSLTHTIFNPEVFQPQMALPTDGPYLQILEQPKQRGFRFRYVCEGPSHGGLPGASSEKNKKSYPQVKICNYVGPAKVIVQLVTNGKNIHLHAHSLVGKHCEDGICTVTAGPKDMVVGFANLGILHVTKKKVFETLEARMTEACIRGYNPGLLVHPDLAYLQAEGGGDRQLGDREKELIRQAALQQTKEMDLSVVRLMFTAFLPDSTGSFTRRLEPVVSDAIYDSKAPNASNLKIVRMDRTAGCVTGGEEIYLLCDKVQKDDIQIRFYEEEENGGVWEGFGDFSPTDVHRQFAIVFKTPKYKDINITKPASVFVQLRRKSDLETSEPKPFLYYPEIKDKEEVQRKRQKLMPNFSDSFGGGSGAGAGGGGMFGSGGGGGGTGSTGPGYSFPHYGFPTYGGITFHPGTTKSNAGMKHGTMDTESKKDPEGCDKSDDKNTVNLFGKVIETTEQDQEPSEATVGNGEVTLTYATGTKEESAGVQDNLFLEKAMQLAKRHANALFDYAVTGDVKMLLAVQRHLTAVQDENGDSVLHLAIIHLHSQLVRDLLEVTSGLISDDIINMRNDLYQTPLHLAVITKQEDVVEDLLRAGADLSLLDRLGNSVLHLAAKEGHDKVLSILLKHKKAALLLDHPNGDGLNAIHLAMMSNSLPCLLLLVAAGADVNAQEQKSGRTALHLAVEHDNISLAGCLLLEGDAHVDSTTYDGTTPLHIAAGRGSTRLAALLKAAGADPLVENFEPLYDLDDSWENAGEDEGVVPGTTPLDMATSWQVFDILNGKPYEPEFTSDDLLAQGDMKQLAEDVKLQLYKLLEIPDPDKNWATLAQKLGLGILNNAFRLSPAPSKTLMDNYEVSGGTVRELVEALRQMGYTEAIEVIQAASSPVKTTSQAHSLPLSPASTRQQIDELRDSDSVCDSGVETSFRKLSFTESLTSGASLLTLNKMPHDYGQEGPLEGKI
Nuclear factor NF-kappa-B complex (Homo sapiens), sequence (Q00653 whole entry, looked up): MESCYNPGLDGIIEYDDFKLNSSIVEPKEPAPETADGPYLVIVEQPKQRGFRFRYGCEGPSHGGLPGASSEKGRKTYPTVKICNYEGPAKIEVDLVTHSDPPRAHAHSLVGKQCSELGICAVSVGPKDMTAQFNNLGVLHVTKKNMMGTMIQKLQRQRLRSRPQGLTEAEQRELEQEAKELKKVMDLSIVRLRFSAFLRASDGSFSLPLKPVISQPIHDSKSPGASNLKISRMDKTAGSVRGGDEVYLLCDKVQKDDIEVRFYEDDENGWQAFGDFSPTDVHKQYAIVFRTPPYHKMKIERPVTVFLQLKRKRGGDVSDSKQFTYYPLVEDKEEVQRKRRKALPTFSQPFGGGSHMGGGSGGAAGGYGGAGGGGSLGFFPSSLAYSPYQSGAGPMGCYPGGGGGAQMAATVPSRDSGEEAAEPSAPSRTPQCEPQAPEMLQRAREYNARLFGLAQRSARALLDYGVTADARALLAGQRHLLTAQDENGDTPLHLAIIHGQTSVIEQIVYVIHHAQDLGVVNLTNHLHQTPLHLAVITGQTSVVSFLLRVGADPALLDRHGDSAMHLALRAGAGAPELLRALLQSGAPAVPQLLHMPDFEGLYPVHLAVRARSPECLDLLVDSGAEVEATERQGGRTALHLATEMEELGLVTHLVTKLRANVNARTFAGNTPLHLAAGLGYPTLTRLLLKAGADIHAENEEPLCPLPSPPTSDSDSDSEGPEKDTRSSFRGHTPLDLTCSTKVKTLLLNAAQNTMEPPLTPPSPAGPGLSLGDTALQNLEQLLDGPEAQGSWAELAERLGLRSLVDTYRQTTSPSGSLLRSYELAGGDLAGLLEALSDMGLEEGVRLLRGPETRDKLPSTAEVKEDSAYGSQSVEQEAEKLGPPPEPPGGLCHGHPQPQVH
Nuclear factor NF-kappa-B complex (Homo sapiens), sequence (Q04206 whole entry, looked up): as the sequence (Q04206 whole entry) above

[8] = Cytotoxicity against human PC3 cells assessed as cell viability at 10 uM after 72 hrs by sulforhodamine B assay relative to control; type: functional; settings: PC-3, 72 h, read-out: Activity
[9] = Cytotoxicity against human HCT15 cells assessed as growth inhibition after 72 hrs by sulforhodamine B assay; type: functional; settings: HCT-15, 72 h
[10] = Cytotoxicity against human NUGC3 cells assessed as growth inhibition after 72 hrs by sulforhodamine B assay; type: functional; settings: NUGC-3, 72 h
[11] = Cytotoxicity against human PC3 cells assessed as growth inhibition after 72 hrs by sulforhodamine B assay; type: functional; settings: PC-3, 72 h
[12] = test system: MDA-MB-231; assay: Cytotoxicity against human MDA-MB-231 cells assessed as growth inhibition after 72 hrs by sulforhodamine B assay; type: functional; settings: MDA-MB-231, 72 h
[13] = test system: ACHN; assay: Cytotoxicity against human ACHN cells assessed as growth inhibition after 72 hrs by sulforhodamine B assay; type: functional
[14] = test system: NCI-H23; assay: Cytotoxicity against human NCI-H23 cells assessed as growth inhibition after 72 hrs by sulforhodamine B assay; type: functional; settings: NCI-H23, 72 h

Compound	IC50 [6]	inhibition [7]	viability at 10 µM [1]	viability at 10 µM [2]	viability at 10 µM [3]	viability at 10 µM [4]	viability at 10 µM [5]	viability at 10 µM [8]	GI50 [9]	GI50 [10]	GI50 [11]	GI50 [12]	GI50 [13]	GI50 [14]
O=C(Nc1cc(C(F)(F)F)cc(C(F)(F)F)c1)c1cc2ccccc2o1	34000 nM	51.5%	101%	95%	98%	98%	98%	110%	–	–	–	–	–	–
COc1cccc2c1C(=O)c1c(O)c3c(c(O)c1C2=O)C[C@@](O)(C(=O)CO)C[C@@H]3O[C@H]1C[C@H](N)[C@H](O)[C@H](C)O1 [DOXORUBICIN]	–	–	–	–	–	–	–	–	450 nM	190 nM	910 nM	560 nM	200 nM	400 nM
O=C(Nc1cccc(O)c1)C1Cc2ccccc2O1 (stereo not drawn)	–	17%	60%	125%	97%	63%	110%	4%	–	–	3970 nM	–	–	–
O=C(Nc1ccccc1O)C1Cc2ccccc2O1 (stereo not drawn)	–	20.5%	102%	134%	102%	83%	103%	109%	–	–	–	–	–	–
O=C(Nc1cccc([N+](=O)[O-])c1)c1cc2ccccc2o1	–	11%	99%	93%	88%	111%	98%	95%	–	–	–	–	–	–
O=C(Nc1cccc(Cl)c1)C1Cc2ccccc2O1 (stereo not drawn)	–	43.5%	101%	134%	97%	80%	101%	91%	–	–	–	–	–	–
Cc1ccc(NC(=O)c2cc3ccccc3o2)cc1	–	34.5%	104%	96%	82%	105%	95%	103%	–	–	–	–	–	–
COc1cc(NC(=O)C2Cc3ccccc3O2)cc(OC)c1 (stereo not drawn)	–	24%	95%	123%	91%	78%	96%	73%	–	–	–	–	–	–

Continued, in another order:

IC50 [6]	inhibition [7]	Compound	viability at 10 µM [1]	viability at 10 µM [2]	viability at 10 µM [3]	viability at 10 µM [4]	viability at 10 µM [5]	viability at 10 µM [8]	GI50 [9]	GI50 [10]	GI50 [11]	GI50 [12]	GI50 [13]	GI50 [14]
–	62%	O=C(Nc1ccc(O)cc1)c1cc2ccccc2o1	25%	10%	18%	-32%	47%	-31%	2370 nM	5860 nM	2680 nM	2200 nM	2740 nM	2480 nM
37200 nM	–	COc1cc2c(cc1O)CCC(C(=O)Nc1ccccc1)O2 (stereo not drawn)	86%	109%	105%	81%	99%	90%	–	–	–	–	–	–
–	41.5%	O=C(Nc1ccc(Cl)cc1)C1Cc2ccccc2O1 (stereo not drawn)	89%	143%	55%	100%	100%	71%	–	–	–	–	–	–
–	70%	Cc1cc(C)cc(NC(=O)c2cc3ccccc3o2)c1	99%	101%	79%	94%	93%	94%	–	–	–	–	–	–
–	44.5%	O=C(Nc1ccccc1C(F)(F)F)C1Cc2ccccc2O1 (stereo not drawn)	102%	136%	98%	98%	103%	74%	–	–	–	–	–	–
